These results are taken from paper PMC10359466, “Identification of a small-molecule inhibitor that selectively blocks DNA-binding by Trypanosoma brucei replication protein A1” (Nature Communications, 2023).

For one test, the system named is T. brucei cells. Put plainly: AlamarBlue cell viability / growth inhibition of T. brucei. As to conditions: 10 to 60 μM, even at 60 µM, 72 h.
In test [1] the test system is human non-small cell lung cancer H460 cells. As to conditions: read-out: IC50, inhibition of proliferation; cited from earlier work.

pIC50: −log10 of the molar value. Entries after “also recorded” stand apart in the source; their conditions may differ.

Procedure for T. brucei cells: Synergy H1 microplate reader (BioTek) was used with 560/590 nm (excitation/emission) filter settings and relative fluorescence unit (RFU) values were obtained. The percentage of viable cells were calculated from the RFU values.
Trypanosome cells were seeded at 1 × 10^3 cells/ml density in 180 µl in a 96-well culture plate in triplicate. […] DMSO was used as a vehicle control at 0.0075%.

In the case of `CCOc1ccc2cc(C3CC(c4ccc(Br)cc4)=NN3C(=O)CCC(=O)O)c(Cl)nc2c1` (centres unmarked) [TDRL-505, reference compound], in the test with T. brucei cells, the “Effect on T. brucei proliferation” value is “did not observe any effect; also recorded: did not show any toxicity”. The pIC50 in test [1] was 4.51.
